According to publication PMC5640644, “HDX reveals the conformational dynamics of DNA sequence specific VDR co-activator interactions” (Nature Communications, 2017):

Biological target: T1, VDRRXRα heterodimer (Homo sapiens, UniProt P11473, DEL151-190)
T1 construct: Full-length WT His-hVDR (Δ (151–190)) and WT Flag-h RXRα were expressed in a baculovirus system; His; made in house; host or cells: baculovirus system (VDR, RXRα); Escherichia coli BL21 DE3 (SRC1 RID)
T1 sequence (P11473 with tags, fused parts or gaps DEL151-190): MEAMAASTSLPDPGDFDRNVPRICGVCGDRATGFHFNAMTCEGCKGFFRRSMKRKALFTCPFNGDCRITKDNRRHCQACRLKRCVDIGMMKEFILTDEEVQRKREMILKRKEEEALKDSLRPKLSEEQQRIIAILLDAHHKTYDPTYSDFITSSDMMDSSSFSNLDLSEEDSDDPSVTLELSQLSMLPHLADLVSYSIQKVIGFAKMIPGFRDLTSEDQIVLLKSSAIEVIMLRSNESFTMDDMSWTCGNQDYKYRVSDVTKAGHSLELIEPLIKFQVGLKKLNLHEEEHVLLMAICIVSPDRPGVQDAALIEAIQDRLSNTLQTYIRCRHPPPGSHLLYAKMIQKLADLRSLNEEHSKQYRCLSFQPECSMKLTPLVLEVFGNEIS
T1 sequence (P19793 1-462 partner): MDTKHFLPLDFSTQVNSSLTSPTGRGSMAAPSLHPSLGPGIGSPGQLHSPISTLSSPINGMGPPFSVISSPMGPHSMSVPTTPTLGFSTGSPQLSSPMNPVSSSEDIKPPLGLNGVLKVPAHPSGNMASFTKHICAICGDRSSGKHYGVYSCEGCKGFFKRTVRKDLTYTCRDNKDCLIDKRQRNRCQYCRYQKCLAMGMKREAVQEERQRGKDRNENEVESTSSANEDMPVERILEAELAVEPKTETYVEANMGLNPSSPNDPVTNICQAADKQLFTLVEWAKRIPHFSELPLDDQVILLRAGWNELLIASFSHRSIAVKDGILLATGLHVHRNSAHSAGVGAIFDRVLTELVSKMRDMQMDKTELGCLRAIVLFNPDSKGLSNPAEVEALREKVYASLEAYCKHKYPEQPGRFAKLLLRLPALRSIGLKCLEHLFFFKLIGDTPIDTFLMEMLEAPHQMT
T1 sequence (Q15788 627-786 partner limits assumed): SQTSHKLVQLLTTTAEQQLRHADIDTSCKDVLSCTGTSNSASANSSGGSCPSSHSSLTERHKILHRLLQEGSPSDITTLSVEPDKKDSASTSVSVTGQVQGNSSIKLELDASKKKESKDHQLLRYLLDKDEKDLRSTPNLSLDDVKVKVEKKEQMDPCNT
Test: Differential HDX-MS of liganded full-length VDRRXRα heterodimer with DNA VBS and SRC1 RID
Type: binding
Conditions: for decrease in solvent exchange within H12 of VDR upon SRC1 RID binding: ligand-heterodimer-DR3 or -DR3 half-site complex (both alike), aa412−419 for Cmpd1; for ΔΔHDX in the VDR hinge region (aa97−108): ΔHDX heterodimer:agonist ± DR3 minus ΔHDX heterodimer:agonist ± DR3 half-site
Procedure: The final protein buffer was 50 mM Tris (pH 8.0), 150 mM NaCl, 10% glycerol and 2 mM DTT.
The DR3 VBS 5′-[…]-3′, DR3 half-site VBS 5′-[…]-3′, BGLAP VBS 5′-[…]-3′, BGLAP* VBS 5′-[…]-3′ and TRPV6 VBS 5′-[…]-3′ duplex oligonucleotides were purchased from Integrated DNA Technologies. […] SRC1 RID was added in a 2× molar ratio to heterodimer, and oligonucleotide (VBS) was mixed with the protein complex as needed (1.5× molar ratio). […]
Solution-phase amide HDX experiments were carried out with a fully automated system (CTC HTS PAL, LEAP Technologies, Carrboro, NC; housed inside a 4 °C cabinet) as follows.
HDX-MS analysis: 10 μM of the apo protein was mixed with 1:10 molar excess of ligand and incubated for 2 h at 4 °C for complex formation before subjecting them to HDX analysis. For the differential HDX experiments, 5 μl of either the apo or the liganded protein complex with DNA and SRC1 RID were mixed with 20 μl of D2O-containing HDX buffer (50 mM Tris, pH 8.0, 150 mM NaCl, and 2 mM DTT) and incubated at 4 °C for 0 s, 10 s, 30 s, 60 s, 300 s, 900 s, or 3,600 s. Following on-exchange, unwanted forward-exchange or back-exchange was minimized and the protein was denatured by the addition of 25 μl of a quench solution (1% v/v TFA in 3 M urea and 50 mM TCEP). Samples were then immediately passed through an immobilized pepsin column (prepared in house) at 50 μl min-1 (0.1% v/v TFA, 15 °C) and the resulting peptides were trapped and desalted on a 1.0 mm × 10 mm C8 trap column (Hypersil Gold, Thermo Fisher, Grand Island, NY). The bound peptides were then gradient-eluted (5–50% CH3CN v/v and 0.3% v/v formic acid) across a 1.0 mm × 50 mm C18 separation column (Hypersil Gold, Thermo Fisher, Grand Island, NY) for 6 min. Sample handling and peptide separation were conducted at 4 °C. The eluted peptides were then subjected to electrospray ionization directly coupled to a high resolution Orbitrap mass spectrometer (LTQ Orbitrap XL with ETD, Q Exactive, or Exactive, Thermo Fisher Scientific, San Jose, CA). Each HDX experiment was carried out in triplicate with a single preparation of each protein-ligand complex. The intensity weighted mean m/z centroid value of each peptide envelope was calculated and subsequently converted into a percentage of deuterium incorporation. This is accomplished by determining the observed averages of the undeuterated and fully deuterated spectra using the conventional formula described elsewhere. […] Statistical significance for the differential HDX data is determined by an unpaired t-test for each time point, a procedure that is integrated into the HDX Workbench software.
Data Statistics: Deuterium uptake for each peptide is calculated as the average of % D for all on-exchange time points and the difference in average %D values between the apo and ligand bound samples is presented as a heat map with a color code given at the bottom of the figure (warm colors for deprotection and cool colors for protection). […] Peptides with non-significant changes between the two states are colored gray. The exchange at the first two residues for any given peptide is not colored.

[1] = both ligand-heterodimer-VBS complexes (DR3, DR3 half-site)

| Structure (SMILES) | decreased exchange for H1 of VDR upon SRC1 RID interaction [1] | decreased exchange for H3 of VDR upon SRC1 RID interaction [1] | decrease in solvent exchange within H12 of VDR upon SRC1 RID binding | ΔΔHDX in the VDR hinge region (aa97−108) | further reduction in deuterium exchange of VDR AF2 H12 upon binding of TRPV6 VBS (ligand-bound heterodimer, not observed upon binding the BGLAP VBS) | protection to solvent exchange at VDR AF2 surface upon SRC1 RID interaction (ligand-heterodimer-BGLAP VBS complex) | protection to solvent exchange at VDR AF2 surface upon SRC1 RID interaction (ligand-heterodimer-TRPV6 VBS complex) |
| --- | --- | --- | --- | --- | --- | --- | --- |
| CCc1cc(C(CC)(CC)c2ccc(OCC(O)C(C)(C)C)c(C)c2)sc1C(=O)N[C@@H](C)C(=O)O (single isomer, unassigned) [Cmpd2, L-2-[(5-{1-Ethyl-1-[4-(2-hydroxy-3,3-dimethyl-butoxy)-3-methyl-phenyl]-propyl}-3-ethyl-thiophene-2-carbonyl)-amino]-propionic acid] | ~ 6% | ~ 9% | ~ 20% | 19% |  |  |  |
| CCC(CC)(c1ccc(OCC(O)C(C)(C)C)c(C)c1)c1ccc(C(=O)N(C)CC(=O)O)c(C)c1 (stereo not drawn) [Cmpd1, [(4-{1-ethyl-1-[4-(2-hydroxy-3,3-dimethyl-butoxy)-3-methyl-phenyl]-propyl}-2-methyl-benzoyl)-methyl-amino]-acetic acid] |  |  | ~ 11% | 21% |  |  |  |
| CCC(CC)(c1ccc(OCC(O)C(C)(C)C)c(C)c1)c1cc(C)c(C(=O)Nc2nnn[nH]2)s1 (stereo not drawn) [Cmpd3, 3'-[4-(2-hydroxy-3,3-dimethylbutoxy)-3-methylphenyl]-3'-[5-(tetrazol-5-yl-aminocarbonyl)-4-methylthiophen-2-yl]pentane] |  |  |  |  | ~ 13% | ~ 20% | ~ 9% |
